Measurements published in paper PMC12469161, “Anti-cancer compound screening identifies Aurora Kinase A inhibition as a means to favor CRISPR/Cas9 gene correction over knock-out” (PLOS One, 2025).
pIC50: −log10 of the molar value.

Key:
HEK293T-eGFP cells [1] = assay: MTT cytotoxicity assay, 72 hours; type: cell-based; settings: 72 h; HEK293T-eGFP cells, 3 days of incubation, MTT; read-out: IC50
Experimental: Cells were cultured for 16–24 hours under standard culturing conditions (5% CO2, 37 °C). […] All dose ranges were added in duplicate, followed by 72 hours of incubation. Cell viability was determined using a tetrazolium based metabolic activity assay. Briefly, 5 µL of 3-(4.5-dimethylthiazol-2-yl)-2,5-diphenyltetrazolium bromide (MTT) solution (5 mg/mL MTT in sterile PBS) was added per well, and the microplates were incubated for 4 hours at 37°C and 5% CO2 in a cell culture incubator. Next, 40 µL of 10% SDS/0.01 M HCl was added per well, and the microplates were incubated for 24–72 hours at 37°C and 5% CO2 in a cell culture incubator. Subsequently the absorbance at 570 nm and background absorbance at 720 nm were measured using the Spectramax i3x (Molecular Devices, San Jose, USA). Subsequently, the absorbance values at 720 nm were subtracted from the absorbance values at 570 nm, and the corresponding values were used to plot dose-response curves.
The data was normalized to the DMSO-treated cells (defined as 100% viability) and the empty controls (defined as 0% viability).

[2] = test system: eGFP locus in HEK293T-eGFP cells (HDR vs NHEJ); assay: CRISPR gene-editing outcome (eGFP to BFP conversion, flow cytometry) with CRISPR-Cas9 LNP; type: cell-based
Experimental: (§1) Compounds were assessed in three dosages to assess the effects on gene-editing efficacy. […] Cells were incubated with these compounds for 24 hours prior to LNP addition. LNP were added to all wells at a final concentration of 20 nM SpCas9 to achieve robust genome editing. After 24 hours of co-incubation, medium was refreshed and cells were transferred to a 48 well plate for further culturing. Six days after adding compounds, cells were processed for flow cytometric analysis of the gene knock-out and gene-correction efficiencies. Briefly, a ssDNA template was used carrying two nucleotide mutations to convert the eGFP sequence to that of a blue fluorescent protein (BFP), as well as mutating the PAM sequence to ensure robust HDR. The sgRNA spacer sequence was 5’-[…]-3’, and the HDR template sequence was 5’-[…]-3’.
Flow cytometry using the BD FACS Canto II (Becton Dickinson) was used to determine cells undergoing NHEJ (eGFP and BFP negative population) and HDR (eGFP negative, BFP positive). Data analysis was performed using Flowlogic (version 8.7). Graphpad PRISM (version 9.3.1) was used for statistical analysis and preparing graphs.
(§2) The percentage of HDR relative to total gene editing in a given cell population (hereafter named Relative HDR (% of edited cells) was calculated by dividing the absolute HDR population by the sum of gene-edited cells found in the BFP+ and eGFP- gates. Absolute HDR (% of all cells) and Absolute NHEJ (% of all cells) were analyzed where appropriate. The gating strategy is given in S1 Fig in S1 File.

[3] = test system: eGFP locus in Hepa 1–6-eGFP cells (HDR vs NHEJ); assay: CRISPR gene-editing outcome (eGFP to BFP, flow cytometry) with ProDeliverIN CRISPR; type: cell-based, murine; settings: for dosage with overall high efficacy and manageable toxicity: Hepa 1–6-eGFP
From the text: Lipid nanoparticles (LNP) carrying SpCas9, sgRNA and HDR template DNA were formulated using the components and molecular ratios described previously. 1,1′-((2-(4-(2-((2-(bis(2-hydroxydodecyl)amino)ethyl)(2-hydroxydodecyl)amino)ethyl)piperazin-1-yl)ethyl)azanediyl)bis(dodecan-2-ol) (C12-200) was acquired from CordonPharma (Plankstadt, Germany) and used as the ionizable lipid in the formulation. 1,2-dioleoyl-sn-glycero-3-phosphoethanolamine (DOPE) was acquired from Lipoid GmbH (Steinhausen, Switzerland), Cholesterol and 1,2-dimyristoyl-rac-glycero-3-methoxypolyethylene glycol-2000 (PEG-DMG) were acquired from Sigma-Aldrich, and 1,2-dioleoyl-3-trimethylammonium-propane (DOTAP) was acquired from Merck (Darmstadt, Germany). LNP were produced using microfluidic mixing with the Dolomite Microfluidics system (Dolomite Microfluidics, Royston, United Kingdom) and herring-bone micromixer chip with hydrophilic coating (Dolomite Microfluidics, catalogue number 3200401). A total flow rate of 1.5 mL/min and flow rate ratio of 2:1 were used between an aqueous outer phase containing SpCas9, sgRNA and HDR template in nuclease free water, and the lipids in 100% ethanol in the inner phase, respectively. The resulting LNP were diluted 4 times in Dulbecco’s PBS (Sigma-Aldrich). In the experiments using the Hepa 1–6 eGFP cells, ProDeliverIN CRISPR (OZ Biosciences, San Diego, USA) was used as reported previously.
as §1
Flow cytometry using the BD FACS Canto II (Becton Dickinson) was used to determine cells undergoing NHEJ (eGFP and BFP negative population) and HDR (eGFP negative, BFP positive). […]
as §2

HEK293T cells = assay: MTS time-resolved cytotoxicity and morphology; type: cell-based
Experimental: (§3) A narrower cytotoxicity range was determined by exposing cells to 0.1–1 µM of the tested compounds. 48 hours after treatment started, cells were washed and harvested using medium and one third of the volume was transferred to a fresh 96 well plate, analogous to how cells are treated during gene editing experiments. Subsequently, cells were cultured for another 3–5 days. In the case of 5 days, one third of the cells was again transferred into a fresh 96-well plate on day 3 to allow enough space for logarithmic cell growth during the additional incubation time. Cell viability was determined by the Promega One Step MTS assay (Promega, Madison, USA) using the manufacturer’s specifications. Relative cell viability for the Hepa 1–6-eGFP cells was calculated by normalizing the compound conditions to controls treated with DMSO only or DMSO plus gene editing formulations. For the HEK293T cells, the absolute absorbance at […] was used as it was more representative of the relative cell viability between samples.
(§4) Cell morphology was assessed using the Nikon Eclipse Ti2 microscope (Nikon Europe, Amstelveen, The Netherlands). Pictures were acquired at 10x magnification with a Nikon DSLR 10 camera using the same imaging settings within each experiment set (Nikon Europe, Amstelveen, The Netherlands).

[4] = MTS cell viability and morphology, 5 days; type: cell-based, murine; settings: mouse, Hepa 1–6-eGFP cells; 0.3 µM, MTS 5 days after start of treatment; read-out: relative cell viability
Experimental: as §3, §4

Hepa 1–6-eGFP cells = assay: MTS cell viability and morphology, 5 days; type: cell-based, murine; settings: for cell morphology by microscopy: 0.3 µM, after 5 days, vs untreated control
Experimental: as §3, §4

[5] = test system: primary murine hepatocytes; assay: MTT cytotoxicity on primary hepatocytes; type: cell-based, murine (Ai9 mice); settings: for pIC50: Mus musculus, Hepatocyte
Experimental: Primary murine hepatocytes were harvested from Ai9 mice and cultured in 2D prior to transfection as previously reported. […] Toxicity was measured at this timepoint, and 72 hours later,. Cell viability was calculated by subtracting a medium blank from the absorption, and dividing the absorption by that of a vehicle-only control.

[6] = test system: PCSK9 locus in Hepa 1–6 cells; assay: PCSK9 genome editing, Sanger sequencing and TIDER; type: cell-based, murine; settings: TIDER, 0.3 µM
Experimental: Transfection mixtures were prepared to deliver 30 nM RNP (and where applicable 60 nM HDR template DNA) respectively using the commercial ProdeliverIN CRISPR kit. Following this, the cells were incubated for an additional 48h followed by cell lysis and DNA purification using the DNeasy Blood and Tissue kit (Qiagen, Venlo, The Netherlands) using the manufacturers protocol for cell line lysis. Subsequently, PCR was done using the primer set in S1 Table using the Phusion Hotstart Dna Polymerase (Thermo Fischer Scientific) and the recommended thermocycle conditions and PCR mix by the manufacturer. PCR products were purified using the GeneJET PCR Purification Kit (Thermo Fischer Scientific) and finally prepared for Sanger sequencing performed by Macrogen (Amsterdam, The Netherlands. Data was analyzed using the TIDER software package available at http://shinyapps.datacurators.nl/tider/ using an untreated sequencing plot as control chromatogram and a dsDNA gBlock (Integrated DNA Technologies) containing the desired mutation as reference chromatogram. Total gene editing and HDR were analyzed for S7 Figure.

HEK293T-eGFP cells [7] = assay: MTT cytotoxicity assay, 72 hours; type: cell-based; settings: 0.1 µM, MTT toxicity curve (S2 Fig), two days after treatment
AURKA = test system: AURKA; set-up: method as in manufacturer; settings: ref manufacturer; cited from earlier work
AURKB = test system: AURKB; set-up: method as in manufacturer; settings: ref manufacturer; cited from earlier work

Q: Which results are given for `COc1cc(Nc2ncc3c(n2)-c2ccc(Cl)cc2C(c2c(F)cccc2OC)=NC3)ccc1C(=O)O` [Alisertib]?
A: pIC50 (HEK293T-eGFP cells [1]): < 5.00; increase in preferential gene correction over gene knock-out ([2]; HEK293T, eGFP locus, sub-micromolar dosages): over 4 fold; lowest effective concentration for preferential HDR activation ([2]; HEK293T-eGFP cells, narrow dose range): 0.3 µM; preferential activation of HDR over NHEJ in hit validation ([2]; narrowed dose range, triplicate, vs LNP only): strong dose-dependent preferential activation of HDR over NHEJ; effect on the NHEJ and HDR outcomes ([2]; validated hits, Fig 2B): inhibited NHEJ and improved HDR; increase in preferential gene correction over gene knock-out ([3]; Hepa 1–6, eGFP locus, sub-micromolar dosages): over 4 fold; dosage with overall high efficacy and manageable toxicity [3]: 0.3 µM; toxicity at different incubation times (HEK293T cells; MTS, total incubation time varied (S5 Fig A)): did not vary significantly; cell viability by MTS (HEK293T cells; after 2 days): not affected; cell viability by MTS (HEK293T cells; after 5 days): dose-dependent decrease in cell viability; metabolic activity and confluency (HEK293T cells; seven days after treatment started, at least 0.3 µM): very low metabolic activity and confluency; viability at 5 days, 0.3 µM [4]: 37%; cell morphology by microscopy (Hepa 1–6-eGFP cells): did not change as drastically; pIC50 ([5]; 48h after exposure): 4.49; pIC50 ([5]; 120h after exposure (48h incubation)): 4.26; toxicity (order of) ([5]; primary murine hepatocytes, both timepoints): 30 to 50 µM; HDR at the PCSK9 locus [6]: measurable only when alisertib was present; loss of cell viability (HEK293T-eGFP cells [7]): 20%

Q: With `CC(=O)NCC(=O)N1[C@@H]2CC[C@H]1c1ccc(Nc3ncc(C(F)(F)F)c(NC4CCC4)n3)cc12` [PF-03814735] as the compound, how does the “dosage with overall high efficacy and manageable toxicity” value [3] read?
A: Its value is 0.2 µM.

Q: And the “cell morphology by microscopy” value (Hepa 1–6-eGFP cells)?
A: The value was “did not change as drastically”.

Q: What about the “comparative cytotoxicity of the aurora kinase inhibitors” value (Hepa 1–6-eGFP cells; Hepa 1–6-eGFP) of the same compound?
A: Its value is “clearly more drastic toxicity”.

Q: What about the pIC50 (AURKB) of the same compound?
A: The pIC50 was 9.30.
